Experimental data from PubChem BioAssay AID330 (DTP/NCI, 2004).
Where “and” joins values, the source holds several entries; their conditions need not be identical. Equal values may be shown once. Toxic doses and inconclusive results are not listed. The calls were made as follows: active = survival T/C of 150% or more; inactive = T/C below 125% in these data.

System: P388 leukemia ip, CD2F1 mice, survival T/C
Assay: NCI In Vivo Anticancer Drug Screen. Data for tumor model P388 Leukemia (intraperitoneal) in CD2F1 (CDF1) mice
Details: endpoint: median survival time, higher = longer survival
In short: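 Mice carrying the transplanted tumor received test compound or vehicle. Survival was recorded in each group, and the value is the treated-group measurement divided by that of the vehicle-treated control group.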

[1] = dose: 12.5 mg/kg/injection, schedule: Q01DX009 (ip), vehicle: saline
[2] = dose: 25.0 mg/kg/injection, schedule: Q01DX009 (ip), vehicle: saline
[3] = dose: 50.0 mg/kg/injection, schedule: Q01DX009 (ip), vehicle: saline
[4] = dose: 100.0 mg/kg/injection, schedule: Q01DX009 (ip), vehicle: saline
[5] = dose: 200.0 mg/kg/injection, schedule: Q01DX009 (ip), vehicle: saline
[6] = dose: 50.0 mg/kg/injection, schedule: Q01DX009 (ip), vehicle: saline with Tween-80
[7] = dose: 100.0 mg/kg/injection, schedule: Q01DX009 (ip), vehicle: saline with Tween-80
[8] = dose: 200.0 mg/kg/injection, schedule: Q01DX009 (ip), vehicle: saline with Tween-80
[9] = dose: 50.0 mg/kg/injection, schedule: Q01DX005 (ip), vehicle: Klucel (hydroxypropylcellulose) (HPC)
[10] = dose: 50.0 mg/kg/injection, schedule: Q01DX005 (ip), vehicle: saline with Tween-80
[11] = dose: 60.0 mg/kg/injection, schedule: Q01DX005 (ip), vehicle: Klucel (hydroxypropylcellulose) (HPC)
[12] = dose: 120.0 mg/kg/injection, schedule: Q01DX005 (ip), vehicle: Klucel (hydroxypropylcellulose) (HPC)
[13] = dose: 240.0 mg/kg/injection, schedule: Q01DX005 (ip), vehicle: Klucel (hydroxypropylcellulose) (HPC)

Measured: T/C

OCCCN1CCN(CCCO)CC1
inactive: [1] 103 % of control and 96 % of control | [2] 97 % of control and 98 % of control | [3] 92 % of control and 97 % of control | [4] 101 % of control and 95 % of control | [5] 100 % of control and 106 % of control | dose: 400.0 mg/kg/injection, schedule: Q01DX009 (ip), vehicle: saline 103 % of control and 91 % of control

C[N+]12CN3CN(CP(C3)C1)C2
inactive: dose: 6.25 mg/kg/injection, schedule: Q01DX009 (ip), vehicle: saline 99 % of control | [1] 100 % of control | [2] 101 % of control

CC1=C(C)OP(=O)(O)O1
inactive: [6] 100 % of control | [3] 100 % of control | [7] 100 % of control | [4] 96 % of control | [8] 95 % of control | [5] 100 % of control

Clc1ccccc1C=Nc1ccccc1
inactive: [6] 121 % of control

COC1=CC(=Nc2ccc(N(C)C)cc2)C=CC1=O
inactive: dose: 3.12 mg/kg/injection, schedule: Q01DX005 (ip), vehicle: saline 106 % of control | dose: 6.25 mg/kg/injection, schedule: Q01DX005 (ip), vehicle: saline 109 % of control | dose: 12.5 mg/kg/injection, schedule: Q01DX005 (ip), vehicle: saline 106 % of control

O=C1[O][Sn]2([Cl])[NH]C1C[S]2 (stereo unspecified)
inactive: [9] 100 % of control | dose: 100.0 mg/kg/injection, schedule: Q01DX005 (ip), vehicle: Klucel (hydroxypropylcellulose) (HPC) 102 % of control

O=C(Cc1nc2ccccc2s1)Nc1ccc2ccccc2c1
inactive: dose: 60.0 mg/kg/injection, schedule: Q01DX005 (ip), vehicle: saline with Tween-80 107 % of control | dose: 120.0 mg/kg/injection, schedule: Q01DX005 (ip), vehicle: saline with Tween-80 106 % of control

O=C(CNC(c1ccccc1)(c1ccccc1)c1ccccc1)OC(c1ccccc1)c1ccccc1
inactive: [6] 104 % of control | [7] 118 % of control | [8] 90 % of control

COc1ccc(-c2c(-c3ccccc3)oc(/N=C/c3ccccc3)c2-c2ccccc2)cc1
inactive: dose: 12.5 mg/kg/injection, schedule: Q01DX005 (ip), vehicle: saline with Tween-80 101 % of control | dose: 25.0 mg/kg/injection, schedule: Q01DX005 (ip), vehicle: saline with Tween-80 90 % of control | [10] 90 % of control

CCCc1cc(=O)n(-c2ccc([N+](=O)[O-])cn2)c(=S)[nH]1
inactive: dose: 12.5 mg/kg/injection, schedule: Q01DX005 (ip), vehicle: Klucel (hydroxypropylcellulose) (HPC) 95 % of control | dose: 25.0 mg/kg/injection, schedule: Q01DX005 (ip), vehicle: Klucel (hydroxypropylcellulose) (HPC) 106 % of control | [9] 101 % of control and 116 % of control

CCOC(=O)c1ccc(NC(=O)Nc2nc3ccc(OC)cc3s2)cc1
inactive: dose: 25.0 mg/kg/injection, schedule: Q01DX009 (ip), vehicle: distilled water + Tween-80 91 % of control | dose: 50.0 mg/kg/injection, schedule: Q01DX009 (ip), vehicle: distilled water + Tween-80 89 % of control | dose: 100.0 mg/kg/injection, schedule: Q01DX009 (ip), vehicle: distilled water + Tween-80 91 % of control | dose: 200.0 mg/kg/injection, schedule: Q01DX009 (ip), vehicle: distilled water + Tween-80 89 % of control | dose: 400.0 mg/kg/injection, schedule: Q01DX009 (ip), vehicle: distilled water + Tween-80 89 % of control

CS(=O)(=O)OCC1CCSC1=O (stereo unspecified)
inactive: [6] 100 % of control | [7] 106 % of control | [8] 108 % of control

Cc1cc(O)c(C(=O)/C=C(\O)c2ccccc2)c(=O)o1
inactive: dose: 10.5 mg/kg/injection, schedule: Q01DX005 (ip), vehicle: Klucel (hydroxypropylcellulose) (HPC) 100 % of control | dose: 21.0 mg/kg/injection, schedule: Q01DX005 (ip), vehicle: Klucel (hydroxypropylcellulose) (HPC) 102 % of control | dose: 42.0 mg/kg/injection, schedule: Q01DX005 (ip), vehicle: Klucel (hydroxypropylcellulose) (HPC) 106 % of control | dose: 84.0 mg/kg/injection, schedule: Q01DX005 (ip), vehicle: Klucel (hydroxypropylcellulose) (HPC) 86 % of control

CCN(CC)c1ccc(/C=C(\C#N)C(N)=S)cc1
inactive: [3] 89 % of control | [4] 101 % of control | [5] 105 % of control

C=C(C)Cn1c(=O)n(CC)c(=O)c2[nH]c(Cl)nc21
inactive: dose: 16.0 mg/kg/injection, schedule: Q01DX009 (ip), vehicle: Klucel (hydroxypropylcellulose) (HPC) 108 % of control | dose: 32.0 mg/kg/injection, schedule: Q01DX009 (ip), vehicle: Klucel (hydroxypropylcellulose) (HPC) 107 % of control | dose: 50.0 mg/kg/injection, schedule: Q01DX009 (ip), vehicle: Klucel (hydroxypropylcellulose) (HPC) 95 % of control | dose: 64.0 mg/kg/injection, schedule: Q01DX009 (ip), vehicle: Klucel (hydroxypropylcellulose) (HPC) 117 % of control | dose: 100.0 mg/kg/injection, schedule: Q01DX009 (ip), vehicle: Klucel (hydroxypropylcellulose) (HPC) 100 % of control | dose: 200.0 mg/kg/injection, schedule: Q01DX009 (ip), vehicle: Klucel (hydroxypropylcellulose) (HPC) 101 % of control

CCOC(=O)CCC(=O)Oc1cccc2c1C(=O)c1c(OC(=O)CCC(=O)OCC)cccc1C2=O
inactive: [11] 91 % of control | [12] 97 % of control | [13] 91 % of control

CN(C)CCc1ccccn1
inactive: dose: 25.0 mg/kg/injection, schedule: Q04DX003 (ip), vehicle: saline 101 % of control | dose: 50.0 mg/kg/injection, schedule: Q04DX003 (ip), vehicle: saline 115 % of control | dose: 100.0 mg/kg/injection, schedule: Q04DX003 (ip), vehicle: saline 94 % of control

COc1ccc(C(c2cc3c(cc2O)OCO3)N2CCOCC2)c(OC)c1 (stereo unspecified)
inactive: [11] 101 % of control | [12] 99 % of control | [13] 110 % of control

Cc1nc2[nH]ncc2c(=O)n1N
inactive: dose: 50.0 mg/kg/injection, schedule: Q01DX005 (ip), vehicle: saline 97 % of control | dose: 100.0 mg/kg/injection, schedule: Q01DX005 (ip), vehicle: saline 108 % of control | dose: 200.0 mg/kg/injection, schedule: Q01DX005 (ip), vehicle: saline 101 % of control

CC(=O)Nc1ccc(S(=O)(=O)Oc2noc3ccc(Cl)cc23)cc1
inactive: dose: 100.0 mg/kg/injection, schedule: Q04DX002 (ip), vehicle: Klucel (hydroxypropylcellulose) (HPC) 98 % of control | dose: 200.0 mg/kg/injection, schedule: Q04DX002 (ip), vehicle: Klucel (hydroxypropylcellulose) (HPC) 98 % of control | dose: 400.0 mg/kg/injection, schedule: Q04DX002 (ip), vehicle: Klucel (hydroxypropylcellulose) (HPC) 93 % of control

CN=C(NC)c1ccc(NC(=O)c2ccc(C(=O)Nc3ccc(C(=NC)NC)cc3)c([N+](=O)[O-])c2)cc1
inactive: dose: 1.56 mg/kg/injection, schedule: Q01DX005 (ip), vehicle: Klucel (hydroxypropylcellulose) (HPC) 106 % of control | dose: 3.12 mg/kg/injection, schedule: Q01DX005 (ip), vehicle: Klucel (hydroxypropylcellulose) (HPC) 118 % of control

CCOC(=O)C[N+]12CCC34c5cc(OC)c(OC)cc5N5C(=O)CC6OCC=C(C1)C(CC32)C6C54 (stereo unspecified)
inactive: dose: 1.56 mg/kg/injection, schedule: Q01DX009 (ip), vehicle: saline with Tween-80 100 % of control and 108 % of control | dose: 3.12 mg/kg/injection, schedule: Q01DX009 (ip), vehicle: saline with Tween-80 100 % of control and 108 % of control | dose: 25.0 mg/kg/injection, schedule: Q01DX009 (ip), vehicle: saline with Tween-80 105 % of control (2×) and 94 % of control | [6] 105 % of control and 111 % of control and 95 % of control | [7] 105 % of control and 111 % of control and 98 % of control

CCc1nc(-c2ccccc2)nc2c1nc(Cc1ccccc1)n2Nc1ccccc1
inactive: dose: 100.0 mg/kg/injection, schedule: Q01DX001 (ip), vehicle: Klucel (hydroxypropylcellulose) (HPC) 88 % of control

Cc1ccccc1CN1C2=NCCN2C(=O)C2=C1CCN(S(=O)(=O)c1ccc(Cl)c(S(N)(=O)=O)c1)C2
inactive: [3] 96 % of control | [4] 97 % of control | [5] 90 % of control

Cc1cc2nc3c(=O)[nH]c(=O)nc-3n(CC(O)C(O)C(O)CO)c2cc1C (stereo unspecified)
inactive: [6] 99 % of control and 104 % of control | [7] 96 % of control and 98 % of control

Cc1cc(C)nc(NS(=O)(=O)c2ccc(N=c3c4ccccc4n(Cc4ccccc4)c4ccccc34)cc2)n1
inactive: [10] 98 % of control | dose: 100.0 mg/kg/injection, schedule: Q01DX005 (ip), vehicle: saline with Tween-80 88 % of control

C[Si](C)(C)OC=C1CCCCC1
inactive: dose: 50.0 mg/kg/injection, schedule: Q01DX009 (ip), vehicle: olive oil, sesame oil, peanut oil 113 % of control | dose: 100.0 mg/kg/injection, schedule: Q01DX009 (ip), vehicle: olive oil, sesame oil, peanut oil 122 % of control | dose: 200.0 mg/kg/injection, schedule: Q01DX009 (ip), vehicle: olive oil, sesame oil, peanut oil 108 % of control
